Results published in US20220235065A1 (Epizyme, Inc., priority 2016, published 2022).

Biological target: T1, recombinant purified human EHMT2 913-1193 (Homo sapiens, UniProt Q96KQ7)
T1 construct: Recombinant purified human EHMT2 913-1193 (55 μM) synthesized by Viva was used for all experiments; purchased Viva
T1 sequence (Q96KQ7 913-1193): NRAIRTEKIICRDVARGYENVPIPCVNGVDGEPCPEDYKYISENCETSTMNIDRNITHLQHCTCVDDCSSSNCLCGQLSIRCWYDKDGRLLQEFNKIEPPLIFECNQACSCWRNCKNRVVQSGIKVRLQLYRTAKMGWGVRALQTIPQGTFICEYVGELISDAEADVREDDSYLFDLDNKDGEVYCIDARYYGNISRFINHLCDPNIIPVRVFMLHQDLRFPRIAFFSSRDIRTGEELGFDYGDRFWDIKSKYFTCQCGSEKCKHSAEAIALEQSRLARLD
Test: EHMT2 enzyme assay on histone peptide substrate (3H-SAM Flashplate)
Type: biochemical
Conditions: read-out: EHMT2 PEP (IC50 μM)
Summary of the method: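 Compounds (10-point 3-fold series, top 50 μM final, 2% DMSO) preincubated 30 min with 0.031 nM EHMT2 in 20 mM Bicine pH 7.5, 1 mM TCEP; reaction started with 3H-SAM and biotinylated H3 1-15 peptide, both at Km, run 60 min at room temperature. Flashplate capture; IC50 from four-parameter fit, triplicates.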

Q: Which IC50 does the source give for `CNc1cc(C)nc(Nc2ccc(OC)c(-c3cc(C4CC4)on3)c2)n1` [Compound 13] here?
A: 1 to 10 µM

Q: `COc1cc2c(cc1-c1cc3[nH]ccc3cn1)N=C(NCC(N)=O)C21CCC1` [Compound 309] was tested. Which IC50 did it give?
A: 1 to 10 µM

Q: How did the IC50 turn out when `CNc1nc(Nc2ccc(OC)c(-n3ncc4c3CCNC4)c2)nc(C)c1F` [Compound 28, 5-fluoro-2-N-(4-methoxy-3-[1H,4H,5H,6H,7H-pyrazolo[4,3-c]pyridin-1-yl]phenyl)-4-N,6-dimethylpyrimidine-2,4-diamine trifluoroacetic acid] was run?
A: 1 to 10 µM

Q: For `CNc1nc(Nc2ccc(OC)c(-n3cc4c(n3)CCNC4)c2)nc(C)c1F` [Compound 27, 5-fluoro-2-N-(4-methoxy-3-[2H,4H,5H,6H,7H-pyrazolo[4,3-c]pyridin-2-yl]phenyl)-4-N,6-dimethylpyrimidine-2,4-diamine trifluoroacetic acid], which IC50 is on record?
A: 0.1 to 1 µM

Q: Which IC50 does the source give for `CNc1cc(C)nc(Nc2ccc(C)c(-c3cc4ccccc4[nH]3)c2)n1` [Compound 274] here?
A: > 10 µM

Q: How did the IC50 turn out when `CCc1ccc(Nc2nc(C)cc(NC)n2)cc1-n1cc(CNC)cn1` [Compound 320] was run?
A: < 0.1 µM

Q: How did the IC50 turn out when `CNc1cc(C)nc(Nc2ccc(OC)c(-c3cccc4[nH]ncc34)c2)n1` [Compound 37, 2-N-[3-(1H-indazol-4-yl)-4-methoxyphenyl]-4-N,6-dimethylpyrimidine-2,4-diamine; trifluoroacetic acid] was run?
A: > 10 µM

Q: `CNc1cc(C)nc(Nc2ccc(C)c(-c3nc4ccncc4[nH]3)c2)n1` [Compound 279] was tested. Which IC50 did it give?
A: < 0.1 µM

Q: With `CNC1=Nc2cc(-n3cc(CN4CCC4)cn3)c(OC)cc2C12CCC2` [Compound 314] as the molecule, how does the IC50 read?
A: < 0.1 µM

Q: For `CNc1cc(C)nc(Nc2ccc(OC)c(-n3ncc4cnccc43)c2)n1` [Compound 35, 2-N-(4-methoxy-3-[1H-pyrazolo[4,3-c]pyridin-1-yl]phenyl)-4-N,6-dimethylpyrimidine-2,4-diamine; trifluoroacetic acid], which IC50 is on record?
A: 1 to 10 µM
